Values quoted from earlier work, collected in US20090082370A1, “Pharmaceutical Combinations of PK Inhibitors and Other Active Agents” (priority 2006, published 2009).

Tests used:
PKA = details: read-out: IC50 against PKA
OVCAR-3 tumour cells = details: at concentrations of 50 and 100 microM
PKC = details: read-out: IC50 against PKC
PKG = details: read-out: IC50 against PKG
PKB = PKB (Homo sapiens, UniProt P31749); details: read-out: IC50 against PKB
[1] = antitumour agent
[2] = system: Acute Promyelocytic Leukemia (APL)
[3] = in vivo
[4] = system: phospho-AKT in breast cancer cells; details: both in vitro and in vivo
[5] = doses 10 times more than were needed for antitumour activity

Sequence of PKB (P31749 whole entry, species assumed): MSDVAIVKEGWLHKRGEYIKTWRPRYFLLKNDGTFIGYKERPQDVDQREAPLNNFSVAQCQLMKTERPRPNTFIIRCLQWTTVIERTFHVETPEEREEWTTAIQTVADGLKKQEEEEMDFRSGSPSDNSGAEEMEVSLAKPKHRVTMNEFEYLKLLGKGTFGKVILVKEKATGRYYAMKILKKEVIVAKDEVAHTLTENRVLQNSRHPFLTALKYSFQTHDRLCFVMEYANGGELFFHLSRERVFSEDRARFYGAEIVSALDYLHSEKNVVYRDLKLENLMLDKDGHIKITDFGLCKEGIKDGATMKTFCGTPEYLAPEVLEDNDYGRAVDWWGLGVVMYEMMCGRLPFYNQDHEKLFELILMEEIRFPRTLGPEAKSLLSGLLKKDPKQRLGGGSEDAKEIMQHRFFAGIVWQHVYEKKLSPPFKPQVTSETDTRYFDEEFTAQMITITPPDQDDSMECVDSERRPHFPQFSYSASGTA

Q: What does the source list for `O=S(=O)(NCCNCC=C(c1ccccc1)c1ccccc1)c1cccc2cnccc12` [NL-71-101]?
A: IC50 (PKA): 9 µM; apoptosis in OVCAR-3 tumour cells, in which PKB is amplified (OVCAR-3 tumour cells): induced apoptosis; IC50 (PKC): 104 µM; IC50 (PKG): 36 µM; IC50 (PKB): 3.7 µM

Q: With `CCN[C@H]1CO[C@@H](O[C@H]2[C@H](O[C@H]3C#C/C=C\C#C[C@]4(O)CC(=O)C(NC(=O)OC)=C3/C4=C\CSSSC)O[C@H](C)[C@@H](NO[C@H]3C[C@H](O)[C@H](SC(=O)c4c(C)c(I)c(O[C@@H]5O[C@@H](C)[C@H](O)[C@@H](OC)[C@H]5O)c(OC)c4OC)[C@@H](C)O3)[C@@H]2O)C[C@@H]1OC` [Calicheamicin] as the molecule, how does the “potency relative to adriamycin” value [1] read?
A: over 1,000 times

Q: For `CC1=C(/C=C/C(C)=C/C=C/C(C)=C/C(=O)O)C(C)(C)CCC1` [Tretinoin, all-trans retinoic acid], which “remissions in APL patients” value [2] is on record?
A: 64-100%

Q: Which half-life [3] does the source give for `CCCCCCCCCCCCCCCCCCOP(=O)([O-])OC1CC[N+](C)(C)CC1` [KRX-0401] here?
A: ~100 h

Q: Which “inhibition of phospho-AKT” value [4] does the source give for `CCOC(=O)c1ccc2[nH]c3c(OC)c4[nH]c5ccc(C(=O)OCC)cc5c4cc3c2c1` [SR-13668] here?
A: significantly inhibits

Q: And the “adverse effects in mice” value [5]?
A: no adverse effects
